From ChEMBL document CHEMBL5723583, “Data for DCP probe BAY-9835” (2024)

Tests used:
[1] = target: A disintegrin and metalloproteinase with thrombospondin motifs 7 (Homo sapiens, UniProt Q9UKP4); assay: Biochemical enzymatic FRET assay (hADAMTS7) ( FRET substrate, HiLyteFluor-488 DELSSMVLELRGLRT-K(QXL520)-E-NH2 (custom synthesis by Anaspec) was used.)
[2] = target: A disintegrin and metalloproteinase with thrombospondin motifs 4 (Homo sapiens, UniProt O75173); assay: Biochemical enzymatic FRET assay (hADAMTS4) ( FRET substrate, HiLyteFluor-488 DELSSMVLELRGLRT-K(QXL520)-E-NH2 (custom synthesis by Anaspec) was used.)
Chain of A disintegrin and metalloproteinase with thrombospondin motifs 4 (O75173 whole entry): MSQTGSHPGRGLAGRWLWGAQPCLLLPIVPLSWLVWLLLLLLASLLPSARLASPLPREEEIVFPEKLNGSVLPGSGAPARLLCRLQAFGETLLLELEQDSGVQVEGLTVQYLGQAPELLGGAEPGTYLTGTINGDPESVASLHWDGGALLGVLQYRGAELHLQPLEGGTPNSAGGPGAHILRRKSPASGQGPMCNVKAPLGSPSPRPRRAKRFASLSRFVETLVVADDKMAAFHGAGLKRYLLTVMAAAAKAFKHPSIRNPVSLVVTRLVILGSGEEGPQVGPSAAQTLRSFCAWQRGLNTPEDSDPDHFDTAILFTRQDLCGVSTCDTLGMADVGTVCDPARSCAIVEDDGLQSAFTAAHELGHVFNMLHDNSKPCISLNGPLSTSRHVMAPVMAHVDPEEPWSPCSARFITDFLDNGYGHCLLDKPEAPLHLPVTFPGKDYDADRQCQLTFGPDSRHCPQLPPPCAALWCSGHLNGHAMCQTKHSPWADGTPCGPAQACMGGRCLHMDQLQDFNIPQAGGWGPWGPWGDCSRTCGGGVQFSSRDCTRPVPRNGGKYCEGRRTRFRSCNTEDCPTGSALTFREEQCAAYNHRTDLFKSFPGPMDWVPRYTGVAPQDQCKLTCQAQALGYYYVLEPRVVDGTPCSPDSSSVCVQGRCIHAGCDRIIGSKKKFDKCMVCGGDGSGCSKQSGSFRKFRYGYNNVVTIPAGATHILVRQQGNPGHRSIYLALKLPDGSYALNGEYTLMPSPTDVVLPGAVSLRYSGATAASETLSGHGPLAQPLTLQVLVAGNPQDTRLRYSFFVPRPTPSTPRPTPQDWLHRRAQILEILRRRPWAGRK

Chain of A disintegrin and metalloproteinase with thrombospondin motifs 7 (Q9UKP4 whole entry): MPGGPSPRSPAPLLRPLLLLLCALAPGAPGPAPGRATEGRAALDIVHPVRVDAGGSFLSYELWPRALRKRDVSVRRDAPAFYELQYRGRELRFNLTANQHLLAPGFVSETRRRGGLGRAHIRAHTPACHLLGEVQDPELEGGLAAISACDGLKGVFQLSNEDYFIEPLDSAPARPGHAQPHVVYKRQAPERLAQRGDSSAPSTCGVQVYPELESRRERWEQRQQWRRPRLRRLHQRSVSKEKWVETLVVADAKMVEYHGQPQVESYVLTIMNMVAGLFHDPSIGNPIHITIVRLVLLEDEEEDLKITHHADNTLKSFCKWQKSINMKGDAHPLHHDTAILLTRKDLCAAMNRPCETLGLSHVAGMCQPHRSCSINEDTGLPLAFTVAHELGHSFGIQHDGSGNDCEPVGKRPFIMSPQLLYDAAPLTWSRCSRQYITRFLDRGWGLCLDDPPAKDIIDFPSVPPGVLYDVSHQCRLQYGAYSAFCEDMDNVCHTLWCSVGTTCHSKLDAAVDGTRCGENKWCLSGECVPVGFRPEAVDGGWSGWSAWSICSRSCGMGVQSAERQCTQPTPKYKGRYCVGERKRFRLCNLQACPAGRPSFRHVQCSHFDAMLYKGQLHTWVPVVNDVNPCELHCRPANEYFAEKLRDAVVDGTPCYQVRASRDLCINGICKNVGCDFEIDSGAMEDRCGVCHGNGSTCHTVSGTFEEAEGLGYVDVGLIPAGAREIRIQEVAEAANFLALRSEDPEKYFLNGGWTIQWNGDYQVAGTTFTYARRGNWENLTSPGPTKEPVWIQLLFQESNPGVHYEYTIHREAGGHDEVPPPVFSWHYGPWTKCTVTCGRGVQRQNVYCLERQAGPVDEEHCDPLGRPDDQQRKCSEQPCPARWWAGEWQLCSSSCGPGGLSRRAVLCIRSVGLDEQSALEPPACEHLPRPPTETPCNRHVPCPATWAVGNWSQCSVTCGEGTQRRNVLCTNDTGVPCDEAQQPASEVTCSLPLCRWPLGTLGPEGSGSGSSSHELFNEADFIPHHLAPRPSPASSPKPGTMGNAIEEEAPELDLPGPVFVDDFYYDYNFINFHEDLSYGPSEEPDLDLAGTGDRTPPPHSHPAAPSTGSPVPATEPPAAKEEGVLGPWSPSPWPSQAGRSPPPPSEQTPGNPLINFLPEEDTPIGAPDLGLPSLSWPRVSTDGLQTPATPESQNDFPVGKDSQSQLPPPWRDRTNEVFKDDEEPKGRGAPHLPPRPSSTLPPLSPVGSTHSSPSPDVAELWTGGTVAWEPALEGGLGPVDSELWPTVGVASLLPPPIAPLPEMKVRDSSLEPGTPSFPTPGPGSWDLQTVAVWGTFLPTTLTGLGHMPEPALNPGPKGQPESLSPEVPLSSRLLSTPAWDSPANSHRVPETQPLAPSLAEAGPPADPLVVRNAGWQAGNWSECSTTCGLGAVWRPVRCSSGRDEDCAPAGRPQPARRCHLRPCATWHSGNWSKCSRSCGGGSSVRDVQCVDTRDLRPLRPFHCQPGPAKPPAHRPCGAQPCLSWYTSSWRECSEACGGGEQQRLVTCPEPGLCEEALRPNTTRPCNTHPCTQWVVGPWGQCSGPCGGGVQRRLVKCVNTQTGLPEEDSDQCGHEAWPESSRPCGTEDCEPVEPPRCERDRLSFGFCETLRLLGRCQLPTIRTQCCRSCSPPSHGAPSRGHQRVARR

For `Cn1nccc1[C@@]1(CNC(=O)c2ccc(F)cc2-c2ccc(C(F)(F)F)cc2)NC(=O)NC1=O`, the IC50 [1] was 23.4 µM (not active) and the IC50 [2] was > 50 µM (not active).
